One test deals with T1, NS3 genotype 3a protease (UniProt Q81258).
T1 construct: Purified NS3 protease domain (amino acids 1-181) of the genotype 1b and 3a virus were generated as above; fused on or other part: N-terminal hexahistidine tag with an rTEV protease cleavage site (vector p28-N6H-Tev-NS3(181)3)
T1 sequence (Q81258 1033-1663): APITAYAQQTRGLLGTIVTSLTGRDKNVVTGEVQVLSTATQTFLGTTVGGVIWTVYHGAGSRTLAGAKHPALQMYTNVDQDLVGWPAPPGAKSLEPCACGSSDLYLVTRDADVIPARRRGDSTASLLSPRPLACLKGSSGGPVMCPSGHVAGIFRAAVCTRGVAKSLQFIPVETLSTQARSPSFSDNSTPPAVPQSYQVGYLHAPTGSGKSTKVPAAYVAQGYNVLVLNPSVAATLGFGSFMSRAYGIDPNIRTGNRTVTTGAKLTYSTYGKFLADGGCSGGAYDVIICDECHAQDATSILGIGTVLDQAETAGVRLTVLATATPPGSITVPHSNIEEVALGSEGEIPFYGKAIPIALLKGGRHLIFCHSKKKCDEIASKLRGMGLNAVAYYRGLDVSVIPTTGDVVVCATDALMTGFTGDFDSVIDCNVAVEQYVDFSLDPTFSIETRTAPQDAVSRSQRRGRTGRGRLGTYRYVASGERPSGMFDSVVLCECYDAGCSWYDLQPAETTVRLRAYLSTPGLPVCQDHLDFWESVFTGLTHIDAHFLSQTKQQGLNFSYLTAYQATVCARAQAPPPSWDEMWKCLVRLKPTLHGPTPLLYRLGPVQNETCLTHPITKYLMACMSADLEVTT
The experiment in a line: Ki determination, NS3 protease genotype 3a (fluorogenic depsipeptide substrate). It counts as biochemical, hepatitis C virus. The settings on record: NS3 protease domain genotype 3a, NS4A peptide. The text has this:
Ki Determination for Genotypes 1b and 3a NS3 Protease.
Purified NS3 protease domain (amino acids 1-181) of the genotype 1b and 3a virus were generated as above. The internally quenched fluorogenic depsipeptide substrate Ac-DED(Edans)-EEAbuψ[COO]ASK(Dabcyl)-NH2 and a synthetic peptide containing the hydrophobic core residues of the NS4A protein cofactor ([…]; NS4A peptide) were obtained from Anaspec, Inc. (San Jose, Calif.). Other chemicals and biochemicals were of reagent grade or better and were purchased from standard suppliers.
Reactions were run at room temperature in buffer consisting of 50 mM HEPES, 40% glycerol, 0.05% Triton X-100, 10 mM DTT, and 10% DMSO. The final assay solutions contained 50 pM NS3 genotype 1b protease or 200 pM genotype 3a protease, 20 μM NS4A peptide, and 4 μM substrate (genotype 1b) or 2 μM substrate (genotype 3a). Inhibitor concentrations varied from 100 nM to 5 pM in 3-fold dilutions, and no-inhibitor controls were included.
Compound dilutions were made in DMSO at 20× final concentration. Reaction mixtures were prepared in 96-well assay plates. A solution of enzyme and NS4A peptide in assay buffer (25 μL volume with both reagents at 4× final concentration) was mixed with 45 μL assay buffer and 5 μL of either inhibitor or DMSO, and pre-incubated at room temperature for 1 hour. The reaction was started by addition of 25 μL substrate solution at 4× final concentration. Plates were mixed vigorously for 5-10 seconds and reactions were allowed to proceed for 90 minutes. Fluorescence was measured every 30 s between 90 and 120 minutes reaction time using a Tecan InfiniTe M1000 or PerkinElmer Envision multimode plate reader with an excitation wavelength of 340 nm and an emission wavelength of 490 nm.
Rates were calculated from the progress curves at steady state, in the time frame of 90-120 minutes after addition of substrate. To determine the Ki, rates were plotted as a function of inhibitor concentration, and the data were fit with equation 1 (Morrison, J. F., Biochimica et Biophysica Acta 1969, 185, 269-286) to calculate Ki^app using GraphPad Prism 5. Active fraction of enzyme was determined by active site titration with known potent inhibitors. Ki was calculated from Ki^app/(1+[[S]/Km]).

Test [1] concerns genotype 2a stable HCV replicon (JFH-1) in Huh-7-derived cells. Nature of the test: Stable subgenomic HCV replicon, genotype 2a, Renilla luciferase. The settings on record: Hepatitis C virus, stable replicon genotype 2a, 72 h, read-out: EC50 2A RLUC. It counts as cell-based. Here is the method: Antiviral potency (EC50) was determined in both stable subgenomic HCV replicon cell lines and transient-transfected HCV replicon cells. The term half maximal effective concentration (EC50) refers to the concentration of a drug which induces a response halfway between the baseline and maximum after the exposure time specified below.
Stable subgenomic HCV replicons for genotype 1a, 1b, 2a, 3a, and 4a were established in Huh-7-derived cells as described by Lohmann et al (Lohmann V, Korner F, Koch J, et al Replication of subgenomic hepatitis C virus RNAs in a hepatoma cell line. Science 1999; 285:119-3). Each stable cell line contains a bicistronic HCV replicon that encodes a humanized Renilla luciferase (hRLuc) reporter gene fused to a selectable neomycin-resistance gene, followed by an EMCV IRES and the NS3-NS5B coding region of HCV. […] Luciferase activity was measured as a marker for intracellular HCV replication levels.
The genotype 1a stable replicon was derived from the H77 HCV strain and contained adaptive mutations P1496L and S2204I. The genotype 1b stable replicon was derived from the Con1 HCV strain and contained adaptive mutations E1202G, T1280I, and K1846T. […] The genotype 3a stable replicon was derived from the S52 HCV strain and contained adaptive mutations P1121 L, A1198T and S2210I (equivalent to S2204I in genotype 1). The genotype 4a stable replicon was derived from the ED43 HCV strain and contained adaptive mutations Q1691R and S2204I. All replicon cell lines were propagated in Huh-7-derived cells and maintained in Dulbecco's modified Eagle's Medium (DMEM) supplemented with 10% fetal bovine serum (FBS) and 0.5 mg/ml G418.
To perform EC50 assays, cells from each HCV replicon were dispensed into 384-well plates. Compounds were dissolved in DMSO at a concentration of 10 mM and diluted in DMSO using an automated pipetting instrument. Three-fold serially diluted compounds were directly added to the cells using an automated instrument. DMSO was used as a negative (solvent; no inhibition) control, and a combination of three HCV inhibitors including a protease inhibitor; an NS5A inhibitor and a nucleoside inhibitor was used at concentrations >100×EC50 as a positive control (100% inhibition). Seventy-two hours later, cells were lysed and Renilla luciferase activity were quantified as recommended by the manufacturer (Promega-Madison, Wis.). Non-linear regression was performed to calculate […], values.
Background: In antiviral work, replicon cells carry a viral genome segment that copies itself.

The subject of test [2] is genotype 1a (H77) wild-type transient HCV replicon in Huh-7-derived cells. The experiment in a line: Transient-transfected HCV replicon, genotype 1a wild type. It counts as cell-based. The settings on record: Hepatitis C virus; transient-transfected replicon genotype 1a wild type, 72 h; read-out: EC50 1A WT.
The subject of test [3] is NS3/4a protease inhibitor resistant variant D168A in genotype 1b transient HCV replicon. Nature of the test: Transient-transfected HCV replicon, genotype 1b D168A. It counts as cell-based. To be noted: Hepatitis C virus, 72 h, read-out: EC50 1B D168A.

Among the data in US9617310B2 (priority 2013, dated 2017) are Ki and EC50 values, retold here.

One may read the Ki as the dissociation constant of the complex between target and ligand, obtained from inhibition or displacement. For orientation: EC50 means the midpoint of the concentration-response curve. In the case of `COc1ccc2nc3c(nc2c1)O[C@@H]1C[C@@H](C(=O)N[C@]2(C(=O)NS(=O)(=O)C4CC4)C[C@H]2C(F)F)N(C1)C(=O)[C@H](C(C)(C)C)NC(=O)O[C@@H]1C[C@@H]2C[C@@H]2[C@H]1CCCCC3(F)F` (racemic) [Example 9, (1aS,2aR,6S,9S,11R,23aR,23bS)-6-tert-butyl-N-[(1R,2R)-1-[(cyclopropylsulfonyl)carbamoyl]-2-(difluoromethyl)cyclopropyl]-19,19-difluoro-15-methoxy-4,7-dioxo-1a,2,2a,4,5,6,7,10,11,19,20,21,22,23,23a,23b-hexadecahydro-1H,9H-8,11-methanocyclopropa[4′,5′]cyclopenta[1′,2′:18,19][1,10,3,6]dioxadiazacyclononadecino[11,12-b]quinoxaline-9-carboxamide], the Ki at NS3 genotype 3a protease amounted to 0.02 nM. Also, the EC50 in test [1] was 2.3 nM; in test [2] it was 1.3 nM; in test [3], 1.1 nM.

The compound `CC(C)(C)[C@@H]1NC(=O)O[C@@H]2C[C@@H]3C[C@@H]3[C@H]2CCCCC(F)(F)c2nc3cc(F)c(F)cc3nc2O[C@@H]2C[C@@H](C(=O)N[C@]3(C(=O)NS(=O)(=O)C4CC4)C[C@H]3C(F)F)N(C2)C1=O` (racemic) [Example 15, (1aS,2aR,6S,9S,11R,23aR,23bS)-6-tert-butyl-N-[(1R,2R)-1-[(cyclopropylsulfonyl)carbamoyl]-2-(difluoromethyl)cyclopropyl]-15,16,19,19-tetrafluoro-4,7-dioxo-1a,2,2a,4,5,6,7,10,11,19,20,21,22,23,23a,23b-hexadecahydro-1H,9H-8,11-methanocyclopropa[4′,5′]cyclopenta[1′,2′:18,19][1,10,3,6]dioxadiazacyclononadecino[11,12-b]quinoxaline-9-carboxamide] displayed an inhibition constant (Ki) at NS3 genotype 3a protease of 0.05 nM. Moreover, the EC50 in test [1] worked out at 3.3 nM; in test [2] it was 1.6 nM; in test [3] it was 4.7 nM.

In the case of `COc1ccc2nc3c(nc2c1)O[C@@H]1C[C@@H](C(=O)N[C@]2(C(=O)NS(=O)(=O)C4CC4)C[C@H]2C(F)F)N(C1)C(=O)[C@H](C(C)(C)C)NC(=O)O[C@@H]1C[C@@H]2C[C@@H]2[C@H]1CCCCC3` [Example 1, (1aS,2aR,6S,9S,11R,23aR,23bS)-6-tert-butyl-N-[(1R,2R)-1-[(cyclopropylsulfonyl)carbamoyl]-2-(difluoromethyl)cyclopropyl]-15-methoxy-4,7-dioxo-1a,2,2a,4,5,6,7,10,11,19,20,21,22,23,23a,23b-hexadecahydro-1H,9H-8,11-methanocyclopropa[4′,5′]cyclopenta[1′,2′:18,19][1,10,3,6]dioxadiazacyclononadecino[11,12-b]quinoxaline-9-carboxamide], the affinity on NS3 genotype 3a protease, expressed as Ki, was 0.03 nM. For the same compound, the EC50 is 2.5 nM in test [1], 1 nM in test [2] and 4.6 nM in test [3].

Regarding `COc1ccc2nc3c(nc2c1)O[C@@H]1C[C@@H](C(=O)N[C@]2(C(=O)NS(=O)(=O)C4(C)CC4)C[C@H]2C(F)F)N(C1)C(=O)[C@H](C(C)(C)C)NC(=O)O[C@@H]1C[C@@H]2C[C@@H]2[C@H]1CCCCC3` [Example 2, (1aS,2aR,6S,9S,11R,23aR,23bS)-6-tert-butyl-N-[(1R,2R)-2-(difluoromethyl)-1-{[(1-methylcyclopropyl)sulfonyl]carbamoyl}cyclopropyl]-15-methoxy-4,7-dioxo-1a,2,2a,4,5,6,7,10,11,19,20,21,22,23,23a,23b-hexadecahydro-1H,9H-8,11-methanocyclopropa[4′,5′]cyclopenta[1′,2′18,19][1,10,3,6]dioxadiazacyclononadecino[11,12-b]quinoxaline-9-carboxamide], affinity at NS3 genotype 3a protease was put at a Ki of 0.04 nM. In addition, the EC50 in test [1] turned out to be 1.82 nM; in test [2], 1.1 nM; in test [3], 3.2 nM.

Take `COc1ccc2nc3c(nc2c1)O[C@@H]1C[C@@H](C(=O)N[C@]2(C(=O)NS(=O)(=O)C4CC4)C[C@H]2CC(F)F)N(C1)C(=O)[C@H](C(C)(C)C)NC(=O)O[C@@H]1C[C@@H]2C[C@@H]2[C@H]1CCCCC3` [Example 3, (1aS,2aR,6S,9S,11R,23aR,23bS)-6-tert-butyl-N-[(1R,2S)-1-[(cyclopropylsulfonyl)carbamoyl]-2-(2,2-difluoroethyl)cyclopropyl]-15-methoxy-4,7-dioxo-1a,2,2a,4,5,6,7,10,11,19,20,21,22,23,23a,23b-hexadecahydro-1H,9H-8,11-methanocyclopropa[4′,5′]cyclopenta[1′,2′:18,19][1,10,3,6]dioxadiazacyclononadecino[11,12-b]quinoxaline-9-carboxamide]: at NS3 genotype 3a protease, the Ki was 0.21 nM. The EC50 in test [1] came to 15 nM; in test [2], 5.1 nM; in test [3], 50 nM.

In turn, `COc1ccc2nc3c(nc2c1)O[C@@H]1C[C@@H](C(=O)N[C@]2(C(=O)NS(=O)(=O)C4CC4)C[C@H]2C(F)F)N(C1)C(=O)[C@H](C(C)(C)C)NC(=O)O[C@@H]1[C@H]2CC[C@H](C2)[C@H]1CCCCC3` [Example 4, (1R,4S,4aR,8S,11S,13R,25aR)-8-tert-butyl-N-[(1R,2R)-1-[(cyclopropylsulfonyl)carbamoyl]-2-(difluoromethyl)cyclopropyl]-17-methoxy-6,9-dioxo-2,3,4,4a,6,7,8,9,12,13,21,22,23,24,25,25a-hexadecahydro-1H,11H-1, 4:10,13-dimethanoquinoxalino[2,3-k][1,10,3,6]benzodioxadiazacyclononadecine-11-carboxamide] yielded a Ki on NS3 genotype 3a protease of 0.21 nM. The results for the concentration for a half-maximal effect (EC50) in test [1], in test [2] and in test [3] were 18 nM, 2.6 nM and 112 nM, respectively.
